This note sets out measurements from patent US7223759B2, “Antibacterial 3,5-diaminopiperidine-substituted aromatic and heteroaromatic compounds” (Anadys Pharmaceuticals, Inc., priority 2003, dated 2007).

For the first test, the system named is Escherichia coli (ATCC25922) or Staphylococcus aureus (ATCC25923). As to the kind of experiment: Antibacterial MIC, microdilution method in Mueller-Hinton medium. The format is cell-based. The conditions noted are these: Escherichia coli, 18 h, MIC in E. coli or S. aureus; two-fold serial dilutions 64 to 0.5 μg/ml in duplicate; 18 hours of incubation at 35° C.; read-out: Potency (MIC). The procedure, abridged:
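Read after 18 h incubation at 35° C, MIC is the lowest compound level that blocked growth. Compounds were tested in duplicate over 64–0.5 μg/ml two-fold dilutions using Mueller-Hinton microdilution per NCCLS standard.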
(Broth dilution looks for growth in wells or tubes with falling amounts of substance.)
Turning to `Cl.NC1CCN(c2nc(Nc3ccc(Cl)c(Cl)c3)nc(N3C[C@H](N)C[C@H](N)C3)n2)CC1` [(3R,5S)-1-[4-(4-Amino-piperidin-1-yl)-6-(3,4-dichloro-phenylamino)-[1,3,5]triazin-2-yl]-piperidine-3,5-diamine], the MIC – broadly, the smallest concentration in the dilution series that meets the test's criterion for growth inhibition – was under 64 µg/mL.
Same read-out and setting: with `N[C@@H]1C[C@H](N)CN(c2nc(Nc3ccc(C(=O)CC(=O)Nc4ccccc4Cl)cc3)nc(N3C[C@H](N)C[C@H](N)C3)n2)C1` [N-{4-[2-(2-chloro-phenylcarbamoyl)-acetyl]-phenyl}-4,6-Bis-((3R,5S)-3,5-diamino-piperidin-1-yl)-[1,3,5]triazine-2-amine] the figure was under 16 µg/mL; with `Cl.O=C(Nc1cc(C(F)(F)F)ccc1Cl)c1ccc(Nc2nc(N3CCCCC3)nc(N3CCCCC3)n2)cc1O` [N-[4-(2-chloro-5-trifluoromethyl-phenylcarbamoyl)-3-hydroxy-phenyl]-4,6-Biss-((3R,5S)-3,5-diamino-piperidin-1-yl)-[1,3,5]triazine-2-amine], under 64 µg/mL; with `COc1ccc(OC)c(Nc2nc(N3C[C@H](N)C[C@H](N)C3)nc(N3C[C@H](N)C[C@H](N)C3)n2)c1` [N-(2,5-dimethoxy-phenyl)-4,6-Bis-((3R,5S)-3,5-diamino-piperidin-1-yl)-[1,3,5]triazine-2-amine], over 64 µg/mL.
Still for that read-out and setting: with `Cc1cc(=O)oc2cc(Nc3nc(N4C[C@H](N)C[C@H](N)C4)nc(N4C[C@@H](N)C[C@@H](O)C4)n3)ccc12` [7-[4-((3S,5R)-3-Amino-5-hydroxy-piperidin-1-yl)-6-((3R,5S)-3,5-diamino-piperidin-1-yl)-[1,3,5]triazin-2-ylamino]-4-methyl-chromen-2-one] the figure was over 64 µg/mL.
On the same count and under the same terms, in the case of `Cl.O=C(Nc1ccccc1Cl)c1ccc(Nc2nc(N3CCCCC3)nc(N3CCCCC3)n2)cc1O` [N-[4-(2-choro-phenylcarbamoyl)-3-hydroxy-phenyl]-4,6-Bis-((3R,5S)-3,5-diamino-piperidin-1-yl)-[1,3,5]triazine-2-amine] it was under 64 µg/mL.

The test is the same for the next values; noted with them: Escherichia coli, 18 h, read-out: Potency (MIC).
Take `Cc1ccc(C(=O)Nc2ccc(Nc3nc(N4C[C@H](N)C[C@H](N)C4)nc(N4C[C@H](CN)C[C@H](CN)C4)n3)cc2O)cc1` [N-{4-[4-((3S,5R)-3,5-Bis-(aminomethyl)-piperidin-1-yl)-6-((3R,5S)-3,5-diamino-piperidin-1-yl)-[1,3,5]triazin-ylamino]-2-hydroxy-phenyl}-4-methyl-benzamide]: the MIC is under 64 µg/mL.
As to `N[C@@H]1C[C@H](N)CN(c2nc(Nc3ccc([N+](=O)[O-])c(Cl)c3)nc(N3C[C@H](N)C[C@H](N)C3)n2)C1` [N-(3-chloro-4-nitro-phenyl)-4,6-Bis-((3R,5S)-3,5-diamino-piperidin-1-yl)-[1,3,5]triazine-2-amine], the MIC was under 16 µg/mL.
As to `N[C@@H]1C[C@H](N)CN(c2nc(Nc3ccc(C(=O)CC(=O)Nc4ccccc4Cl)cc3)nc(N3C[C@H](O)C[C@H](O)C3)n2)C1` [N-(2-Chloro-phenyl)-3-{4-[4-((3R,5S)-3,5-diamino-piperidin-1-yl)-6-((3R,5S)-3,5-dihydroxy-piperidin-1-yl)-[1,3,5]triazin-2-ylamino]-phenyl}-3-oxo-propionamide], the MIC is under 64 µg/mL.
As for `N[C@@H]1C[C@H](N)CN(c2nc(Nc3ccc(NC(=O)c4ccc(N5Cc6ccccc6C5)cc4O)c(Cl)c3)nc(N3C[C@H](N)C[C@H](N)C3)n2)C1` [N-{3-chloro-4-[4-(1,3-dihydro-isoindol-2-yl)-2-hydroxy-benzoylamino]-phenyl}-4,6-Bis-((3R,5S)-3,5-diamino-piperidin-1-yl)-[1,3,5]triazine-2-amine], the MIC was under 16 µg/mL.
Still for that read-out and setting: with `N[C@@H]1C[C@H](N)CN(c2nc(Nc3ccc(C(=O)CC(=O)Nc4cccc(SC(F)(F)F)c4)cc3)nc(N3C[C@H](N)C[C@H](N)C3)n2)C1` [N-{4-[2-(3-trifluoromethylsulfanyl-phenylcarbamoyl)-acetyl]-phenyl}-4,6-Bis-((3R,5S)-3,5-diamino-piperidin-1-yl)-[1,3,5]triazine-2-amine] the figure was under 16 µg/mL; with `Cc1cc(=O)oc2cc(Nc3nc(N4C[C@H](N)C[C@H](N)C4)nc(N4C[C@H](O)C[C@@H](O)C4)n3)ccc12` [7-[4-((3R,5S)-3,5-Diamino-piperidin-1-yl)-6-((3R,5R)-3,5-dihydroxy-piperidin-1-yl)-[1,3,5]triazin-2-ylamino]-4-methyl-chromen-2-one], over 64 µg/mL; with `Cc1cccc(NNc2nc(N3C[C@H](N)C[C@H](N)C3)nc(N3C[C@H](N)C[C@H](N)C3)n2)c1` [N-(4,6-Bis-((3R,5S)-3,5-diamino-piperidin-1-yl)-[1,3,5]triazin-2-yl)-N′-m-Tolyl-hydrazine], under 64 µg/mL.
On the same count and under the same terms, with `N[C@@H]1C[C@H](N)CN(c2nc(Nc3ccc(NC(=O)CCCC[C@@H]4SC[C@H]5NC(=O)N[C@@H]45)c(O)c3)nc(N3C[C@H](N)C[C@H](N)C3)n2)C1` [5-((3aR,4S,6aS)-2-Oxo-hexahydro-thieno[3,4-d]imidazol-4-yl)-pentanoicacid {4-[4-((3R,5S)-3,5-diamino-piperidin-1-yl)-6-((3S,5R)-3,5-diamino-piperidin-1-yl)-[1,3,5]triazin-2-ylamino]-2-hydroxy-phenyl}-amide] the figure was over 64 µg/mL; with `N[C@@H]1C[C@H](N)CN(c2nc(Nc3ccc(NC(=O)c4cccc(O)c4O)cc3)nc(N3C[C@H](N)C[C@H](N)C3)n2)C1` [N-[4-(2,3-dihydroxy-benzoylamino)-phenyl]-4,6-Bis-((3R,5S)-3,5-diamino-piperidin-1-yl)-[1,3,5]triazine-2-amine], under 16 µg/mL.
Still for that read-out and setting: with `Cc1ccc(S(=O)(=O)N(Cc2ccccc2)c2ccc(Nc3nc(N4C[C@H](N)C[C@H](N)C4)nc(N4C[C@@H](N)C[C@H]4CN)n3)cc2O)cc1` [N-{4-[4-((2S,4S)-4-Amino-2-aminomethyl-pyrrolidin-1-yl)-6-((3R,5S)-3,5-diamino-piperidin-1-yl)-[1,3,5]triazin-2-ylamino]-2-hydroxy-phenyl}-N-benzyl-4-methyl-benzenesulfonamide] the figure was under 64 µg/mL; with `CC(=O)c1ccc(Nc2nc(N3C[C@H](N)C[C@H](N)C3)nc(N3C[C@@H](N)C[C@H]3CN)n2)cc1` [1-{4-[4-((2S,4S)-4-Amino-2-aminomethyl-pyrrolidin-1-yl)-6-((3R,5S)-3,5-diamino-piperidin-1-yl)-[1,3,5]triazin-2-ylamino]-phenyl}-ethanone], over 64 µg/mL.
With `N[C@@H]1C[C@H](N)CN(c2nc(Nc3ccc(N4CCOCC4)cc3)nc(N3C[C@H](N)C[C@H](N)C3)n2)C1` [N-(4-morpholin-4-yl-phenyl)-4,6-Bis-((3R,5S)-3,5-diamino-piperidin-1-yl)-[1,3,5]triazine-2-amine], the MIC is over 64 µg/mL.
For the compound `Cc1cccc(C(=O)Nc2ccc(Nc3nc(N4C[C@H](N)C[C@H](N)C4)nc(N4C[C@H](N)C[C@H](N)C4)n3)cc2O)c1O` [N-[3-hydroxy-4-(2-hydroxy-3-methyl-benzoylamino)-phenyl]-4,6-Bis-((3R,5S)-3,5-diamino-piperidin-1-yl)-[1,3,5]triazine-2-amine], the MIC is under 16 µg/mL.
For `N[C@@H]1C[C@H](N)CN(c2nc(Nc3cccc(CO)c3)nc(N3C[C@H](N)C[C@H](N)C3)n2)C1` [N-(3-hydroxymethyl-phenyl)-4,6-Bis-((3R,5S)-3,5-diamino-piperidin-1-yl)-[1,3,5]triazine-2-amine], the MIC was over 64 µg/mL.
Still for that read-out and setting: with `N[C@@H]1C[C@H](N)CN(c2nc(NCc3ccc(Cl)cc3Cl)nc(N3C[C@H](N)C[C@H](N)C3)n2)C1` [N-(2,4-dichloro-benzyl)-4,6-Bis-((3R,5S)-3,5-diamino-piperidin-1-yl)-[1,3,5]triazin-2-amine] the figure was over 64 µg/mL; with `N[C@@H]1C[C@H](N)CN(c2nc(NCCc3ccc(Cl)cc3Cl)nc(N3C[C@H](N)C[C@H](N)C3)n2)C1` [N-[2-(2,4-dichloro-phenyl)-ethyl]-4,6-Bis-((3R,5S)-3,5-diamino-piperidin-1-yl)-[1,3,5]triazine-2-amine], over 64 µg/mL; with `Cc1cccc(Nc2nc(N3C[C@H](N)C[C@H](N)C3)nc(N3C[C@H](N)C[C@H](N)C3)n2)n1` [N-(6-methyl-pyridin-2-yl)-4,6-Bis-((3R,5S)-3,5-diamino-piperidin-1-yl)-[1,3,5]triazine-2-amine], over 64 µg/mL.
Still for that read-out and setting: with `COc1ccc(C(=O)Nc2ccc(Nc3nc(N4C[C@H](N)C[C@H](N)C4)nc(N4C[C@H](N)C[C@H](N)C4)n3)cc2O)cc1` [N-[3-hydroxy-4-(4-methoxy-benzoylamino)-phenyl]-4,6-Bis-((3R,5S)-3,5-diamino-piperidin-1-yl)-[1,3,5]triazine-2-amine] the figure was under 16 µg/mL.

The same test, now with this note: MIC in E. coli or S. aureus; two-fold serial dilutions 64 to 0.5 μg/ml in duplicate; 18 hours of incubation at 35° C.
For the compound `Cc1ccc(C(=O)Nc2ccc(Nc3nc(N4CCCCC4)nc(N4CCCC4)n3)cc2O)cc1.Cl` [drawing 285, NM-{4-[4-((3R,5S)-3,5-Diamino-piperidin-1-yl)-6-((3R,4S)-3,4-diamino-pyrrolidin-1-yl)-[1,3,5]triazin-2-ylamino]-2-hydroxy-phenyl}-4-methyl-benzamide], the “Potency (MIC)” value is “+ (+ means MIC<64 μg/ml in E. coli or S. aureus)”.
